How the values were obtained:
[1] = system: diabetic nephropathy model mice; assay: Urine volume (24 h, metabolic cage); type: in vivo, Male db/db mice; details: 16 weeks old, 24 h urine
[2] = system: diabetic nephropathy model mice; assay: Tubular regeneration score (HE-stained kidney); type: in vivo, Male db/db mice; details: 16 weeks old, score 0 to 4
[3] = system: diabetic nephropathy model mice; assay: Serum creatinine; details: 16 weeks old
[4] = system: streptozotocin-induced diabetic mice; assay: Blood glucose level (BS) in streptozotocin-induced diabetic mice; type: in vivo, C57BL/6J male mice; details: 30 mg/kg i.p. once a day
Description: 9-week-old C57BL/6J male mice were purchased and familiarized with an animal facility for 1 week. 200 mg/kg of streptozotocin (streptozotocin; STZ) was administered […] into the peritoneal cavity of 10-week-old mice to prepare streptozotocin-induced diabetic mice (hereinafter also referred to as “STZ administration week 0”). One week after the administration of streptozotocin, blood was collected from the tail vein of the mice, and the blood glucose level (BS) was measured using an automatic blood glucose measuring device (product name: Medisafe (trademark) Mini GR-102, made by Terumo (Co)). Mice having a blood glucose level of 400 mg/dL or more were determined to be diabetic mice.
The SMTP-44D groups, the edaravone group, and the pregabalin group were administered SMTP-44D (0.3 mg/kg, 3 mg/kg, or 30 mg/kg doses, respectively), edaravone (10 mg/kg dose), or pregabalin (10 mg/kg dose) into the peritoneal cavity once a day for 3 consecutive weeks from the day following the first week to the fourth week after STZ administration.
For the above-mentioned STZ group, SMTP-44D groups, edaravone group, pregabalin group, and control group mice, the following measurements were conducted every week from the 0th week, which began on the day when streptozotocin (STZ) was administered, to the 4th week (that is, a total of five times). As algesia tests, the following von Frey test and hot plate test were conducted, and hind plantar blood flow, body weight (BW), and blood glucose level (BS) were measured using the above-mentioned automatic blood glucose measure device. Note, for example, the 0th week represents the 0th day. That is, the measurements were conducted on the 0th, 7th, 14th, 21st, and 28th days.

[5] = Body weight in diabetic nephropathy model mice; type: in vivo, Male db/db mice; details: 30 mg/kg i.p. once every two days for 10 weeks; 16 weeks old
[6] = system: diabetic nephropathy model mice; assay: Blood glucose level in diabetic nephropathy model mice; type: in vivo, Male db/db mice; details: 30 mg/kg i.p. once every two days for 10 weeks; 16 weeks old
[7] = system: diabetic nephropathy model mice; assay: Urinary albumin; details: 30 mg/kg i.p. once every two days for 10 weeks; 16 weeks old
[8] = 300 mg/kg orally once every two days for 10 weeks
[9] = 30 mg/kg i.p. once every two days for 10 weeks

Compound CN(C)C(=N)N=C(N)N [metformin] has a Urine volume [1, 8] of 1678.3 ± 250.4 µL, a Tubular regeneration score [2, 8] of 0.5±0.2 pts and a Serum creatinine [3, 8] of 0.6 ± 0.0 mg/dL.

For CC(C)=CCC/C(C)=C/CCC1(C)Oc2c(c(O)cc3c2CN([C@H](Cc2ccccc2)C(=O)O)C3=O)CC1O (some centres unmarked) [SMTP-4D], the “BS (blood glucose level)” value ([4]; 0th week (before dosing)) was 203.5 ± 5.5 mg/dL, the “BS (blood glucose level)” value ([4]; 1st week (before dosing)) was 535.5 ± 28.7 mg/dL and the “BS (blood glucose level)” value ([4]; 2nd week) was 597.3 ± 44.8 mg/dL. For the same compound, the “BS (blood glucose level)” value ([4]; 3rd week) was 638.7 ± 34.2 mg/dL and the “BS (blood glucose level)” value ([4]; 4th week) was 580.3 ± 42.9 mg/dL.

In the case of CC(C)=CCC/C(C)=C/CCC1(C)Oc2c(c(O)cc3c2CN(c2cc(C(=O)O)ccc2O)C3=O)CC1O (centres unmarked) [SMTP-27], the “Body weight compared to the DN group” value [5] was “No significant changes”, the “Blood glucose levels compared to the DN group” value [6] was “No significant changes” and the Urine volume [1, 9] was 1659.2 ± 270.2 µL. The Tubular regeneration score [2, 9] was 0.0±0.0 pts, the Urinary albumin [7] was 0.3 ± 0.1 mg/h/kg and the Serum creatinine [3, 9] was 0.4 ± 0.1 mg/dL.
